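48-hour exposure; five concentrations; linearly interpolated endpoints. The concentration for full growth arrest is given as TGI.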
Columns and labels:
Experiment in all cases: NCI tumour cell line growth inhibition, 48 h
[1] = test system: SF-295 CNS
[2] = test system: RXF 393 renal
[3] = test system: OVCAR-5 ovarian
[4] = test system: PC-3 prostate
[5] = test system: NCI-H226 lung
[6] = test system: OVCAR-4 ovarian
[7] = test system: IGROV1 ovarian
[8] = test system: 786-0 renal
[9] = test system: T-47D breast
[10] = test system: HOP-62 NSCLC
[11] = test system: RPMI-8226 leukemia
[12] = test system: CCRF-CEM leukemia
[13] = test system: A498 renal
[14] = test system: NCI-H23 lung
[15] = test system: LOX IMVI melanoma
[16] = test system: MDA-N
[17] = test system: K-562 leukemia
[18] = test system: NCI-H522 lung
[19] = test system: HCT-15 colon
[20] = test system: ACHN renal
[21] = test system: TK-10 renal
[22] = test system: U251 CNS
[23] = test system: HT29 colon
[24] = test system: SK-MEL-5 melanoma
[25] = test system: MDA-MB-231 breast
[26] = test system: UACC-257 melanoma
[27] = test system: UO-31 renal
[28] = test system: UACC-62 melanoma
[29] = test system: SK-MEL-28 melanoma
[30] = test system: MDA-MB-435
[31] = test system: DU-145 prostate
[32] = test system: NCI-H460 lung
[33] = test system: SNB-19 CNS
[34] = test system: HCT-116 colon
[35] = test system: OVCAR-8 ovarian
[36] = test system: A549 NSCLC
[37] = test system: SK-MEL-2 melanoma
[38] = test system: M14 melanoma
[39] = test system: CAKI-1 renal
[40] = test system: EKVX NSCLC
[41] = test system: SN12C renal
[42] = test system: SF-268 CNS
[43] = test system: SW-620 colon
[44] = test system: HOP-92 NSCLC
[45] = test system: HL-60(TB) leukemia
[46] = test system: NCI/ADR-RES ovarian
[47] = test system: MALME-3M melanoma
[48] = test system: COLO 205 colon
[49] = test system: KM12 colon
[50] = test system: BT-549 breast
[51] = test system: OVCAR-3 ovarian
[52] = test system: MOLT-4 leukemia
[53] = test system: MCF7 breast
[54] = test system: SNB-75 CNS
[55] = test system: SK-OV-3 ovarian
[56] = test system: HS 578T breast
[57] = test system: SF-539 CNS

Cc1ccc(S(=O)(=O)NC(=O)NC(Cc2ccc(O)c(O)c2)C(=O)O)cc1 (stereo not given)
TGI [1]: > 100 µM | TGI [2]: > 100 µM | TGI [3]: > 100 µM | TGI [4]: > 100 µM | TGI [5]: > 100 µM | TGI [6]: > 100 µM | TGI [7]: > 100 µM | TGI [8]: 34.6 µM | TGI [9]: > 100 µM | TGI [10]: > 100 µM | TGI [11]: > 100 µM | TGI [12]: 63 µM | TGI [13]: > 100 µM | TGI [14]: > 100 µM | TGI [15]: > 100 µM | TGI [16]: > 100 µM | TGI [17]: > 100 µM | TGI [18]: > 100 µM | TGI [19]: > 100 µM | TGI [20]: > 100 µM | TGI [21]: > 100 µM | TGI [22]: > 100 µM | TGI [23]: > 100 µM | TGI [24]: > 100 µM | TGI [25]: > 100 µM | TGI [26]: > 100 µM | TGI [27]: > 100 µM | TGI [28]: > 100 µM | TGI [29]: > 100 µM | TGI [30]: > 100 µM | TGI [31]: > 100 µM | TGI [32]: > 100 µM | TGI [33]: > 100 µM | TGI [34]: > 100 µM | TGI [35]: > 100 µM | TGI [36]: > 100 µM | TGI [37]: > 100 µM | TGI [38]: > 100 µM | TGI [39]: > 100 µM | TGI [40]: > 100 µM | TGI [41]: > 100 µM | TGI [42]: 2.8 µM | TGI [43]: 61.9 µM | TGI [44]: > 100 µM | TGI [45]: > 100 µM | TGI [46]: > 100 µM | TGI [47]: > 100 µM | TGI [48]: > 100 µM | TGI [49]: > 100 µM | TGI [50]: > 100 µM | TGI [51]: > 100 µM | TGI [52]: > 100 µM | TGI [53]: > 100 µM

C#CCn1c(=O)c(Cl)cn(/C(=C/C(=O)OCC)C(=O)OCC)c1=O
TGI [1]: > 66.7 µM | TGI [2]: 4.18 µM | TGI [54]: 34.2 µM | TGI [3]: 31.7 µM | TGI [4]: 31.5 µM | TGI [5]: > 59.5 µM | TGI [6]: 38.8 µM | TGI [7]: 35.1 µM | TGI [8]: 3.83 µM | TGI [9]: 5.27 µM | TGI [10]: 37.8 µM | TGI [11]: 5.28 µM | TGI [55]: > 61.6 µM | TGI [12]: 13.3 µM | TGI [13]: 40.8 µM | TGI [14]: 42.6 µM | TGI [15]: 19.9 µM | TGI [16]: 29.9 µM | TGI [17]: 7 µM | TGI [18]: 12.6 µM | TGI [19]: 25.2 µM | TGI [20]: 3.93 µM | TGI [21]: 8.09 µM | TGI [22]: 35 µM | TGI [23]: 39.5 µM | TGI [24]: 30.6 µM | TGI [25]: 35.1 µM | TGI [26]: 33.3 µM | TGI [27]: 10.6 µM | TGI [28]: 29.8 µM | TGI [29]: 38.9 µM | TGI [30]: 35.8 µM | TGI [31]: 33 µM | TGI [32]: > 100 µM | TGI [33]: > 66.7 µM | TGI [34]: 14.4 µM | TGI [35]: 12.9 µM | TGI [36]: > 62.8 µM | TGI [37]: 35.6 µM | TGI [38]: 22.8 µM | TGI [39]: 7.37 µM | TGI [40]: 34.3 µM | TGI [41]: 50.6 µM | TGI [56]: > 100 µM | TGI [42]: 51.1 µM | TGI [43]: 5.46 µM | TGI [44]: 22 µM | TGI [45]: 8.21 µM | TGI [46]: > 79.3 µM | TGI [47]: 8.5 µM | TGI [48]: 2.5 µM | TGI [57]: 12.7 µM | TGI [49]: > 70.5 µM | TGI [50]: 35.7 µM | TGI [51]: 11.7 µM | TGI [52]: > 23.9 µM | TGI [53]: 22.7 µM

— PubChem BioAssay (NCI)
